Laboratory results taken from patent US4710498A, “Pyridyloxy derivatives” (Ikeda Mohando Co., Ltd., priority 1984, dated 1987).
Like-named read-outs stand apart in the source and are kept apart here.

Assays:
[1] = tested on: Gastric Acid Secretion Induced by Histamine; experiment: Inhibition effect on gastric acid secretion induced by histamine in pylorus ligated rat (subcutaneous); format: in vivo, male Wistar rat
Protocol: (§1) A male Wistar rat having a body weight of about 160 g and which had not fed for 24 hours was anesthetized by an intraperitoneal dose of 1.2 g/kg of urethane. After ligating of pylorus and esophagus, the gaster anterior was incised and fitting with a double polyethylene cannula. The wall of the stomach was rinsed with 5 ml of saline at 30 minutes intervals, and the quantity of gastric acid contained in each rinsing solution was measured by titration.
The basal acid secretion was initially measured three times, and then 0.2 mg/kg of each of the compounds of this invention was administered subcutaneously and 3 mg/kg of histamine was administered subcutaneously after the lapse of an additional 30 minutes.
(§2) The quantity of gastric acid secreted after the operation was measured continuously for 3 hours. Within that measurement interval, three time points at which the increase in acid secretion reached a maximum level were selected, and the average quantity of gastric acid secreted at those time points was taken as the increase in acid secretion, which was compared with the increase in acid secretion of the control group to calculate the percent inhibition for secretion of gastric acid (Table 1). [formula] (The result was shown as the average value of five runs.)

[2] = tested on: Gastric Acid Secretion Induced by Histamine; experiment: Inhibitory effect of intraduodenally administered compounds on gastric acid secretion induced by histamine in rat; format: in vivo, male Wistar rat; conditions: for ED50: Rattus norvegicus; for Efficacy Ratio relative to Cimetidine (Cimetidine = 1): rat, in vivo
Protocol: The test was conducted by an improved method based on that reported by Watanabe et al., in "Pharmacometrics", Vol. 3, No. (1), pages 7 to 14 (1969).
as §1, §2

[3] = molecular target: T1, Histamine H2 -Receptor (Cavia porcellus, UniProt P47747); experiment: biochemical; set-up: species or system male Hartley guinea pig; conditions: for Kb: negative logarithm of molar concentration, isolated guinea pig atrium, read-out: Antagonistic Action against Histamine H2 -Receptor (pA2) Determined by Using Atrium isolated from Guinea Pig (converted)
T1 construct: from tissue; host or cells: isolated right atrium of male Hartley guinea pig
Protocol: A male Hartley guinea pig having a body weight of about 400 g was killed by cervical dislocation, and the atrium thereof was isolated and was suspended in an organ bath containing […] of a modified Ringer solution and subjected to a tension of 1 g. The number of heart beats under such condition was recorded using a polygraph.
Initially, from 1×10^-7 mol to 3×10^-4 mol of histamine was allowed to act accumulatively to depict the curve of the dosage-reaction relationship. Likewise, the curve of the dosage of histamine-reaction relationship was depicted in the presence of 5×10^-7 mol to 1×10^-6 mol of the test sample which was injected 3 minutes before. The negative logarithm (pA2) of the molar concentration of the test sample required for moving the curve obtained by single administration of histamine parallel to the right side by a two-times concentration was calculated.

[4] = Rattus norvegicus, 0.2 mg/kg SC, histamine 3 mg/kg SC, average of five runs, read-out: Secretion of Gastric Acid in Rat, Inhibition Rate (%)
[5] = intraduodenal, 30 minutes before histamine SC, first series (Table 2-1), read-out: Median effective dose (ED50) inhibiting Gastric Acid Section (95% Reliability Limit)

T1 sequence (P47747 whole entry): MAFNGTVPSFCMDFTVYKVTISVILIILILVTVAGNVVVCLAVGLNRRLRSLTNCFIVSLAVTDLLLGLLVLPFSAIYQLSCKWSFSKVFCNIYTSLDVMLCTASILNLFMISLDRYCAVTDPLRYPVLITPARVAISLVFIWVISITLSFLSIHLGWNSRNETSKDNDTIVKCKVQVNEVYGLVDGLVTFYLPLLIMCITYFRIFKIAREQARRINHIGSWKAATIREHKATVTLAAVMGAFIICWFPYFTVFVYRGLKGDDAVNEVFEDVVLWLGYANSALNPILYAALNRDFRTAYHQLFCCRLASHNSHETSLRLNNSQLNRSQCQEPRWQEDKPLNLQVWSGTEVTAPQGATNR

Row | Molecule | inhibition in vivo at 0.2 mg/kg [1, 4] [%] | Kb [3] [nM] | ED50 [2, 5] [mg/kg] | Efficacy Ratio relative to Cimetidine (Cimetidine = 1) [2] | further results
1 | 5-dimethylaminomethylbenzyl-2-[4-<6-(1-pipelidinomethyl)pyridyl-2-oxy>-cis-2-butenylamino]-1H-pyrimidin-4-one [Ex. 45] |  |  |  |  | Secretion of Gastric Acid in Rat, Inhibition Rate (%) ([1]; 0.2 mg/kg SC, histamine 3 mg/kg SC, average of five runs): 36%
2 | CN/C(=N/CCSCc1nc[nH]c1C)NC#N [Cimetidine, reference compound] |  |  |  |  | inhibition in vivo at 2 mg/kg ([1]; Rattus norvegicus, sc, read-out: Secretion of Gastric Acid in Rat, Inhibition Rate (%)): 72%; ED50 ([2]; read-out: Median effective dose (ED50) inhibiting Gastric Acid Section (95% Reliability Limit), intraduodenal, 30 minutes before histamine SC, first series (Table 2-1)): 7 mg/kg; ED50 ([2]; read-out: Median effective dose (ED50) inhibiting Gastric Acid Section (95% Reliability Limit), intraduodenal, 30 minutes before histamine SC, second series (Table 2-2)): 8.2 mg/kg
3 | CN(C)Cc1ccnc(OC/C=C\CNc2c(N)c(=O)c2=O)c1 [Ex. 3, 1-amino-2-<4-(4-dimethylaminomethylpyridyl-2-oxy)-cis-2-butenylamino>-1-cyclobuten-3,4-dione] | 52 | 468 |  |  | 
4 | CNc1c(NC/C=C\COc2cc(CN(C)C)ccn2)c(=O)c1=O [Ex. 4, 1-methylamino-2-<4-(4-dimethylaminomethylpyridyl-2-oxy)-cis-2-butenylamino>-1-cyclobuten-3,4-dione] |  |  | 0.11 | 63.6 | 
5 | Nc1n[s+]([O-])nc1NC/C=C\COc1cc(CN2CCCCC2)ccn1 (stereo not drawn) [Ex. 7, 3-amino-4-[4-<4-(1-piperidinomethyl)pyridyl-2-oxy>-cis-2-butenylamino]-1,2,5-thiadiazole-1-oxide] | 90 | 661 | 0.44 | 15.9 | 
6 | CNc1n[s+]([O-])nc1NC/C=C\COc1cc(CN2CCCCC2)ccn1 (stereo not drawn) [Ex. 8, 3-methylamino-4-[4-<4-(1-piperidinomethyl)pyridyl-2-oxy>-cis-2-butenylamino]-1,2,5-thiadiazole-1-oxide] | 85 | 490 |  |  | 
7 | CNc1n[s+]([O-])nc1NC/C=C/COc1cc(CN2CCCCC2)ccn1 (stereo not drawn) [Ex. 10, 3-methylamino-4-[4-<4-(1-piperidinomethyl)pyridyl-2-oxy>-trans-2-butenylamino]-1,2,5-thiadiazole-1-oxide] | 52 | 182 |  |  | 
8 | NC1=NS(=O)(=O)N=C1NC/C=C\COc1cc(CN2CCCCC2)ccn1 [Ex. 13, 3-amino-4-[4-<4-(1-piperidinomethyl)pyridyl-2-oxy>-cis-2-butenylamino]-1,2,5-thiadiazole-1,1-dioxide] | 84 | 708 | 0.5 | 14.0 | 
9 | Nc1nsnc1NC/C=C\COc1cc(CN2CCCCC2)ccn1 [Ex. 15, 3-amino-4-[4-<4-(1-piperidinomethyl)pyridyl-2-oxy>-cis-2-butenylamino]-1,2,5-thiadiazole] | 61 | 35.5 | 0.38 | 18.4 | antagonistic actions against Histamine H2 -receptor (in words) ([3]; isolated right atria of guinea pigs): strong
10 | Nc1nnc(NC/C=C\COc2cc(CN3CCCCC3)ccn2)s1 [Ex. 17, 2-amino-5-[4-<4-(1-piperidinomethyl)pyridyl-2-oxy>-cis-2-butenylamino]-1,3,4-thiadiazole] | 69 | 204 | 0.14 | 50.0 | 
11 | CN(C)Cc1c[nH]c(NC/C=C\COc2cc(CN3CCCCC3)ccn2)nc1=O [Ex. 21, 5-dimethylaminomethyl-2-[4-<4-(1-piperidinomethyl)pyridyl-2-oxy>-cis-2-butenylamino]-1H-pyrimidin-4-one] | 65 | 316 |  |  | 
12 | CN(C)Cc1cccc(Cc2c[nH]c(NC/C=C\COc3cc(CN4CCCCC4)ccn3)nc2=O)c1 [Ex. 23, 5-(3-dimethylaminomethylbenzyl)-2-[4-<4-(1-piperidinomethyl)pyridyl-2-oxy>-cis-2-butenylamino]-1H-pyrimidin-4-one] | 36 | 1550 |  |  | 
13 | O=c1nc(NC/C=C\COc2cc(CN3CCCCC3)ccn2)[nH]nc1Cc1cccnc1 [Ex. 25, 3-[4-<4-(1-piperidinomethyl)pyridyl-2-oxy>-cis-2-butenylamino]-6-(3-pyridylmethyl)-1,2,4-triazin-5-one] | 55 | 170 | 0.14 | 50.0 | 
14 | Nc1cc(NC/C=C\COc2cc(CN3CCCCC3)ccn2)[nH]c(=O)n1 [Ex. 26, 4-amino-6-[4-<4-(1-piperidinomethyl)pyridyl-2-oxy>-cis-2-butenylamino]-1H-pyrimidin-2-one] | 83 | 263 |  |  | 
15 | CNc1c(NC/C=C\COc2cccc(CN3CCCCC3)n2)c(=O)c1=O [Ex. 33, 1-methylamino-2-[4-<6-(1-piperidinomethyl)pyridyl-2-oxy>-cis-2-butenylamino]-1-cyclobuten-3,4-dione] | 34 | 661 |  |  | 
16 | Nc1n[s+]([O-])nc1NC/C=C\COc1cccc(CN2CCCCC2)n1 (stereo not drawn) [Ex. 34, 3-amino-4-[4-<6-(1-piperidinomethyl)pyridyl-2-oxy>-cis-2-butenylamino]-1,2,5-thiadiazole-1-oxide] | 81 | 933 |  |  | 
17 | CNc1n[s+]([O-])nc1NC/C=C\COc1cccc(CN2CCCCC2)n1 (stereo not drawn) [Ex. 35, 3-methylamino-4-[4-<6-(1-piperidinomethyl)pyridyl-2-oxy>-cis-2-butenylamino]-1,2,5-thiadiazole-1-oxide] | 74 | 1100 |  |  | 
18 | Nc1nnc(NC/C=C\COc2cccc(CN3CCCCC3)n2)s1 [Ex. 39, 2-amino-5-[4-<6-(1-piperidinomethyl)pyridyl-2-oxy>-cis-2-butenylamino]-1,3,4-thiadiazole] | 36 | 1550 |  |  | 
19 | Cn1nc(N)nc1NC/C=C\COc1cccc(CN2CCCCC2)n1 [Ex. 41, 3-amino-1-methyl-5-[4-<6-(1-piperidinomethyl)pyridyl-2-oxy>-cis-2-butenylamino]-1H-1,2,4-triazole] | 32 | 1910 |  |  | 
20 | CN(C)Cc1c[nH]c(NC/C=C\COc2cccc(CN3CCCCC3)n2)nc1=O [Ex. 43, 5-dimethylaminomethyl-2-[4-<6-(1-piperidinomethyl)pyridyl-2-oxy>-cis-2-butenylamino]-1H-pyrimidin-4-one] | 44 | 617 |  |  | 
21 | Nc1cc(NC/C=C\COc2cccc(CN3CCCCC3)n2)[nH]c(=O)n1 [Ex. 47, 4-amino-6-[4-<6-(1-piperidinomethyl)pyridyl-2-oxy>-cis-2-butenylamino]-1H-pyrimidin-2-one] | 40 |  |  |  | 
22 | Nc1n[nH]c(=O)nc1NC/C=C\COc1cccc(CN2CCCCC2)n1 [Ex. 49, 6-amino-5-[4-<6-(1-piperidinomethyl)pyridyl-2-oxy<-cis-2-butenylamino]-1,2,4-triazin-3-one] | 45 | 1700 |  |  | 
23 | Nc1n[nH]c(=O)nc1NC/C=C/COc1cc(CN2CCCCC2)ccn1 [compound 30, 6-amino-5-[4-<4-(1-piperidinomethyl)pyridyl-2-oxy>trans-2-butenylamino]-1,2,4-triazin-3-one] |  |  | 0.26 | 26.9 | 
24 | CN(C)Cc1ccnc(OC/C=C\CNc2nc(=O)[nH]nc2N)c1 [compound 31, 6-amino-5-<4-(4-dimethylaminomethylpyridyl-2-oxy)-cis-2-butenylamino>-1,2,4-triazin-3-one] |  |  | 0.28 | 25.0 | 
